How the values were obtained:
Format in all cases: functional
UO-31 = experiment: Cytotoxicity against human UO31 cells assessed as cellular growth at 10 uM by SRB assay
DU-145 = experiment: Cytotoxicity against human DU145 cells assessed as cellular growth at 10 uM by SRB assay
PC-3 = experiment: Cytotoxicity against human PC3 cells assessed as cellular growth at 10 uM by SRB assay
KM12 = experiment: Cytotoxicity against human KM12 cells assessed as cellular growth at 10 uM by SRB assay
NCI-H460 = experiment: Cytotoxicity against human NCI-H460 cells assessed as cellular growth at 10 uM by SRB assay
RPMI-8226 = experiment: Cytotoxicity against human RPMI8226 cells assessed as cellular growth at 10 uM by SRB assay
A549 = experiment: Cytotoxicity against human A549 cells assessed as cellular growth at 10 uM by SRB assay
HCC 2998 = experiment: Cytotoxicity against human HCC2998 cells assessed as cellular growth at 10 uM by SRB assay
BT-549 = experiment: Cytotoxicity against human BT549 cells assessed as cellular growth at 10 uM by SRB assay
MDA-MB-435 = experiment: Cytotoxicity against human MDA-MB-435 cells assessed as cellular growth at 10 uM by SRB assay
OVCAR-3 = experiment: Cytotoxicity against human OVCAR3 cells assessed as cellular growth at 10 uM by SRB assay
LOX IMVI = experiment: Cytotoxicity against human LOXIMVI cells assessed as cellular growth at 10 uM by SRB assay
HL-60(TB) = experiment: Cytotoxicity against human HL-60(TB) cells assessed as cellular growth at 10 uM by SRB assay
A498 = experiment: Cytotoxicity against human A498 cells assessed as cellular growth at 10 uM by SRB assay
786-0 = experiment: Cytotoxicity against human 786-0 cells assessed as cellular growth at 10 uM by SRB assay
SK-OV-3 = experiment: Cytotoxicity against human SKOV3 cells assessed as cellular growth at 10 uM by SRB assay
HOP-62 = experiment: Cytotoxicity against human HOP62 cells assessed as cellular growth at 10 uM by SRB assay
OVCAR-5 = experiment: Cytotoxicity against human OVCAR5 cells assessed as cellular growth at 10 uM by SRB assay
CCRF-CEM = experiment: Cytotoxicity against human CCRF-CEM cells assessed as cellular growth at 10 uM by SRB assay
NCI-H522 = experiment: Cytotoxicity against human NCI-H522 cells assessed as cellular growth at 10 uM by SRB assay
COLO 205 = experiment: Cytotoxicity against human COLO205 cells assessed as cellular growth at 10 uM by SRB assay
HOP-92 = experiment: Cytotoxicity against human HOP92 cells assessed as cellular growth at 10 uM by SRB assay
NCI-H322M = experiment: Cytotoxicity against human NCI-H322M cells assessed as cellular growth at 10 uM by SRB assay
MDA-MB-231 = experiment: Cytotoxicity against human MDA-MB-231 cells assessed as cellular growth at 10 uM by SRB assay
EKVX = experiment: Cytotoxicity against human EKVX cells assessed as cellular growth at 10 uM by SRB assay
HCT-15 = experiment: Cytotoxicity against human HCT15 cells assessed as cellular growth at 10 uM by SRB assay
SF-268 = experiment: Cytotoxicity against human SF268 cells assessed as cellular growth at 10 uM by SRB assay
SF-295 = experiment: Cytotoxicity against human SF295 cells assessed as cellular growth at 10 uM by SRB assay
MOLT-4 = experiment: Cytotoxicity against human MOLT4 cells assessed as cellular growth at 10 uM by SRB assay
CAKI-1 = experiment: Cytotoxicity against human Caki1 cells assessed as cellular growth at 10 uM by SRB assay
UACC-257 = experiment: Cytotoxicity against human UACC257 cells assessed as cellular growth at 10 uM by SRB assay
MDA-MB-468 = experiment: Cytotoxicity against human MDA-MB-468 cells assessed as cellular growth at 10 uM by SRB assay
OVCAR-8 = experiment: Cytotoxicity against human OVCAR8 cells assessed as cellular growth at 10 uM by SRB assay
NCI-H23 = experiment: Cytotoxicity against human NCI-H23 cells assessed as cellular growth at 10 uM by SRB assay
SR = experiment: Cytotoxicity against human SR cells assessed as cellular growth at 10 uM by SRB assay
RXF 393 = experiment: Cytotoxicity against human RXF393 cells assessed as cellular growth at 10 uM by SRB assay
Hs-578T = experiment: Cytotoxicity against human Hs578T cells assessed as cellular growth at 10 uM by SRB assay
SN12C = experiment: Cytotoxicity against human SN12C cells assessed as cellular growth at 10 uM by SRB assay
TK-10 = experiment: Cytotoxicity against human TK10 cells assessed as cellular growth at 10 uM by SRB assay
M14 = experiment: Cytotoxicity against human M14 cells assessed as cellular growth at 10 uM by SRB assay
SF-539 = experiment: Cytotoxicity against human SF539 cells assessed as cellular growth at 10 uM by SRB assay
UACC-62 = experiment: Cytotoxicity against human UACC62 cells assessed as cellular growth at 10 uM by SRB assay
T47D = experiment: Cytotoxicity against human T47D cells assessed as cellular growth at 10 uM by SRB assay
SK-MEL-2 = experiment: Cytotoxicity against human SK-MEL-2 cells assessed as cellular growth at 10 uM by SRB assay
K562 = experiment: Cytotoxicity against human K562 cells assessed as cellular growth at 10 uM by SRB assay
IGROV-1 = experiment: Cytotoxicity against human IGROV1 cells assessed as cellular growth at 10 uM by SRB assay
SK-MEL-5 = experiment: Cytotoxicity against human SK-MEL-5 cells assessed as cellular growth at 10 uM by SRB assay
ACHN = experiment: Cytotoxicity against human ACHN cells assessed as cellular growth at 10 uM by SRB assay
OVCAR-4 = experiment: Cytotoxicity against human OVCAR4 cells assessed as cellular growth at 10 uM by SRB assay
[1] = Cytotoxicity against human NCI-ADR-RES cells assessed as cellular growth at 10 uM by SRB assay
SW-620 = experiment: Cytotoxicity against human SW620 cells assessed as cellular growth at 10 uM by SRB assay
HCT-116 = experiment: Cytotoxicity against human HCT116 cells assessed as cellular growth at 10 uM by SRB assay
NCI-H226 = experiment: Cytotoxicity against human NCI-H226 cells assessed as cellular growth at 10 uM by SRB assay
HT-29 = experiment: Cytotoxicity against human HT-29 cells assessed as cellular growth at 10 uM by SRB assay
U-251 = experiment: Cytotoxicity against human U251 cells assessed as cellular growth at 10 uM by SRB assay
SK-MEL-28 = experiment: Cytotoxicity against human SK-MEL-28 cells assessed as cellular growth at 10 uM by SRB assay
SNB-19 = experiment: Cytotoxicity against human SNB19 cells assessed as cellular growth at 10 uM by SRB assay

O=C(NCCc1ccccc1)c1cc2cccc([N+](=O)[O-])c2[nH]1
Activity (UO-31): 62.13% | Activity (DU-145): 112.66% | Activity (PC-3): 77.13% | Activity (KM12): 106.02% | Activity (NCI-H460): 101.23% | Activity (RPMI-8226): 88.5% | Activity (A549): 94.33% | Activity (HCC 2998): 105.66% | Activity (BT-549): 99.6% | Activity (MDA-MB-435): 109.58% | Activity (OVCAR-3): 109% | Activity (LOX IMVI): 85.8% | Activity (HL-60(TB)): 114.53% | Activity (A498): 117.41% | Activity (786-0): 105.28% | Activity (SK-OV-3): 91.43% | Activity (HOP-62): 90.84% | Activity (OVCAR-5): 116.02% | Activity (CCRF-CEM): 86.81% | Activity (NCI-H522): 84.92% | Activity (COLO 205): 90.85% | Activity (HOP-92): 84.88% | Activity (NCI-H322M): 115.94% | Activity (MDA-MB-231): 77.17% | Activity (EKVX): 83.28% | Activity (HCT-15): 86.79% | Activity (SF-268): 106.93% | Activity (SF-295): 92.52% | Activity (MOLT-4): 91.34% | Activity (CAKI-1): 87.57% | Activity (UACC-257): 108.88% | Activity (MDA-MB-468): 90.5% | Activity (OVCAR-8): 94.36% | Activity (NCI-H23): 92.74% | Activity (SR): 91.6% | Activity (RXF 393): 105.34% | Activity (Hs-578T): 111.09% | Activity (SN12C): 94.11% | Activity (TK-10): 102.94% | Activity (M14): 100.89% | Activity (SF-539): 103.09% | Activity (UACC-62): 71.51% | Activity (T47D): 69.69% | Activity (SK-MEL-2): 101.4% | Activity (K562): 82.43% | Activity (IGROV-1): 101.06% | Activity (SK-MEL-5): 76.25% | Activity (ACHN): 93.06% | Activity (OVCAR-4): 75.65% | Activity [1]: 97.02% | Activity (SW-620): 108.15% | Activity (HCT-116): 101.79% | Activity (NCI-H226): 82.38% | Activity (HT-29): 99.19% | Activity (U-251): 97.58% | Activity (SK-MEL-28): 99.12% | Activity (SNB-19): 97.53%

From ChEMBL document CHEMBL2202954, “The effect of PLC-γ2 inhibitors on the growth of human tumour cells” (2012)
